{
  "source": "ChEMBL document CHEMBL3779867",
  "about": "“An NMR Biochemical Assay for Fragment-Based Drug Discovery: Evaluation of an Inhibitor Activity on Spermidine Synthase of Trypanosoma cruzi” (J Med Chem, 2016)",
  "key": {"Spermidine synthase [1]": {"target": "T1, Spermidine synthase (Trypanosoma cruzi (strain CL Brener), UniProt Q4CXJ6)", "T1 sequence (Q4CXJ6 whole entry)": "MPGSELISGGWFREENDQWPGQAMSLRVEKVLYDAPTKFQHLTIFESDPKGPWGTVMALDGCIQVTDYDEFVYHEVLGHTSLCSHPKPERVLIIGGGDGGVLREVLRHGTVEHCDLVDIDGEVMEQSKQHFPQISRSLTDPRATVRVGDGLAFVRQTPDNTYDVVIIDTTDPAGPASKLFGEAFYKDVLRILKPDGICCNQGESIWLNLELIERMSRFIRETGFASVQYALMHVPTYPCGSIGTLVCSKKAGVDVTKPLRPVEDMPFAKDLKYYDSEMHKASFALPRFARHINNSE", "test": "Inhibition of Trypanosoma cruzi strain CL Brener N-terminal poly-His tagged spermidine synthase expressed in Escherichia coli BL21(DE3) using 50 uM putrescine as substrate in presence of 100 uM dcSAM incubated for 1 hr by NMR analysis based constant-time batch reaction assay"}, "Spermidine synthase [2]": {"target": "T2, Spermidine synthase (Sus scrofa, UniProt Q6QA75)", "T2 sequence (Q6QA75 whole entry)": "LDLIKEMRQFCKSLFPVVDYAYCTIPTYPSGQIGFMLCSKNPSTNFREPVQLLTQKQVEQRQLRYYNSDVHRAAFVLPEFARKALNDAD", "test": "Inhibition of porcine spermidine synthase assessed as production of labeled 5'-methylthioadenosine using putrescine as substrate by enzymatic assay in presence of 10 uM decarboxylated AdoMet"}, "Spermidine synthase [3]": {"target": "T1, Spermidine synthase", "description": "Inhibition of Trypanosoma cruzi strain CL Brener N-terminal poly-His tagged spermidine synthase expressed in Escherichia coli BL21(DE3) using 0.5 mM putrescine as substrate in presence of 1 mM dcSAM by FA-real time NMR analysis"}},
  "data": [
    {"smiles": "NC1=Nc2ccccc2SC1", "values": [
      {"measurement": "IC50", "setting": "Spermidine synthase [1]", "result": 100, "unit": "µM"}
    ]},
    {"smiles": "C[C@H]1CC[C@H](N)CC1", "values": [
      {"measurement": "IC50", "setting": "Spermidine synthase [1]", "result": 0.093, "unit": "µM"},
      {"measurement": "IC50", "setting": "Spermidine synthase [2]", "result": 1.7, "unit": "µM"},
      {"measurement": "IC50", "setting": "Spermidine synthase [3]", "result": 0.62, "unit": "µM"}
    ]}
  ]
}
